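Method: 48-hour compound exposure of cells in 96-well plates, five concentrations, linear interpolation of endpoints. At the GI50, growth is halved. At the TGI there is no net growth.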
Legend:
Assay in all cases: NCI tumour cell line growth inhibition, 48 h
DMS 114 small cell lung = tested on: DMS 114 small cell lung
RXF-631 renal = tested on: RXF-631 renal
SNB-78 CNS = tested on: SNB-78 CNS
DLD-1 colon = tested on: DLD-1 colon
M19-MEL melanoma = tested on: M19-MEL melanoma
KM20L2 colon = tested on: KM20L2 colon
HOP-18 NSCLC = tested on: HOP-18 NSCLC
LXFL 529 NSCLC = tested on: LXFL 529 NSCLC
MDA-N = tested on: MDA-N
P388/ADR leukemia = tested on: P388/ADR leukemia
P388 leukemia = tested on: P388 leukemia
SN12K1 renal = tested on: SN12K1 renal

Row | SMILES | TGI (DMS 114 small cell lung) [µM] | TGI (SNB-78 CNS) [µM] | TGI (DLD-1 colon) [µM] | TGI (M19-MEL melanoma) [µM] | TGI (KM20L2 colon) [µM] | TGI (HOP-18 NSCLC) [µM] | TGI (LXFL 529 NSCLC) [µM] | TGI (MDA-N) [µM] | further results
1 | CC1=C2CC[C@@]3(C)C(=CCC3O)C2(C)CCC1=O (some centres undefined) | > 100 | > 100 | > 100 | > 100 | > 100 | > 100 | > 100 | – | TGI (RXF-631 renal): > 100 µM
2 | O=C(O)CN1C(=O)OC(c2ccccc2)C1=O (centres undefined) | – | – | – | – | – | – | – | > 100 | –
3 | OC1CC(O)O[C@H](c2ccccc2)C1 (some centres undefined) | – | > 100 | > 100 | > 100 | > 100 | > 100 | > 100 | – | –
4 | Cc1[nH]c(=O)n2c(C)nnc2c1C(=O)O | > 100 | > 100 | > 100 | > 100 | – | – | > 100 | – | –
5 | CC[O-].CC[O-].O=C1C=C([O-])C(=O)c2ccccc21.O=C1C=C([O-])C(=O)c2ccccc21.[Ti+4] | – | – | > 100 | 3.81 | > 100 | > 100 | > 100 | – | GI50 (DLD-1 colon): > 100 µM; GI50 (M19-MEL melanoma): 1.61 µM; GI50 (KM20L2 colon): 84.7 µM; GI50 (HOP-18 NSCLC): > 100 µM; GI50 (LXFL 529 NSCLC): 83.3 µM
6 | C[C@@H](NC1CCCC[C@@H]1O)c1ccccc1 (some centres undefined) | – | > 100 | > 100 | > 100 | > 100 | > 100 | > 100 | – | –
7 | OC1(C(Sc2ccccc2)Sc2ccccc2)CCCCCC1 | 68.9 | > 100 | > 100 | > 100 | 9.27 | – | – | – | –
8 | CC(=O)Oc1ccc2c(=O)c(C(C)=O)coc2c1 | – | > 100 | – | > 100 | > 100 | – | > 100 | – | –
9 | CC(=O)OC1C(O)C(C)OC(OC2C(OC(=O)C3CCC4C(C3)OC3(CC(OC(=O)/C=C/c5ccccc5)C(C)CO3)C43CO3)OC(C)C(O)C2OC(C)=O)C1O (centres undefined) | 0.0727 | – | > 1.5 | 0.0665 | 0.21 | 0.413 | – | 0.0182 | TGI (P388/ADR leukemia): > 2.5 µM; TGI (P388 leukemia): 0.279 µM; TGI (SN12K1 renal): 0.0583 µM
10 | CCCCCc1cc(/C=C2/N=C(c3ccc[nH]3)C=C2OC)[nH]c1C | – | – | – | – | – | – | – | 0.155 | –
11 | CNC(=O)/C=C/C1=CN2C(=O)c3ccc(C)c(O)c3NC(OC)C2C1 (centres undefined) | – | – | – | – | – | – | – | < 0.0211 | –
12 | O=C(O)C1=Cc2cccc3cccc(c23)C1=O | > 100 | – | > 100 | > 100 | > 100 | > 100 | > 100 | – | –
13 | COC(=O)c1cc(O)ccc1O | > 100 | > 100 | – | > 100 | – | – | > 100 | – | TGI (RXF-631 renal): > 100 µM
14 | C=C(C)COc1ccc2c(c1)CCC1C2CCC2(C)C(=O)/C(=N/O)CC12 (centres undefined) | – | – | – | – | – | – | – | 14.7 | –
15 | CCOC(=O)C#Cc1cccc(C#CC(=O)OCC)c1 | – | – | – | – | – | – | – | 6.44 | –
16 | COc1cc(-c2oc3c(OC)c(O)c(OC)c(O)c3c(=O)c2OC)cc(OC)c1OC | – | – | – | – | – | – | – | > 100 | –
17 | CC(=O)OC(C(=O)[O][Ge]([CH3])([CH3])[CH3])c1ccccc1 (centres undefined) | > 100 | > 100 | > 100 | > 100 | > 100 | > 100 | > 100 | – | GI50 (DMS 114 small cell lung): > 100 µM; GI50 (SNB-78 CNS): > 100 µM; GI50 (DLD-1 colon): > 100 µM; GI50 (M19-MEL melanoma): > 100 µM; GI50 (KM20L2 colon): > 100 µM; GI50 (HOP-18 NSCLC): > 100 µM; GI50 (LXFL 529 NSCLC): > 100 µM
18 | CCCCCCCCCCCCC(O)C1CCC(C(O)CCCCC(O)CCCCCC2CC(CC(C)=O)C(=O)O2)O1 (centres undefined) | 7.78 | > 41 | 21 | 12.5 | 19.7 | 23.3 | 16.3 | 4.81 | TGI (RXF-631 renal): 16.7 µM
19 | COc1ccc(C2=C(c3ccccc3)C(=O)N3CCCC3C2)cc1 (centres undefined) | – | – | – | – | – | – | – | > 100 | GI50 (MDA-N): 0.441 µM
20 | CC(=O)[O-].CC(=O)[O-].O=C([CH-]C(=O)c1ccccc1)c1ccccc1.[Nd+3].[OH3+] | – | – | – | – | > 100 | – | – | – | GI50 (KM20L2 colon): 30.5 µM
21 | CC(=O)OCc1nnn2c1C(OC(C)=O)CC2 (centres undefined) | > 100 | > 100 | > 100 | > 100 | > 100 | – | > 100 | – | TGI (RXF-631 renal): > 100 µM
22 | CC(C)(C)N1CC1CNC(=O)C(=O)NCC1CN1C(C)(C)C (centres undefined) | 2.49 | – | – | 2.62 | 5.96 | – | – | > 92.9 | –
23 | CCOC(=O)C(C(=O)OCC)=C1C=C(c2ccccc2)c2ccccc21 | > 100 | > 100 | > 100 | > 100 | > 100 | – | > 100 | – | –
24 | CCOC(=O)CCc1c(C)c2c(OC)cc(OC)cc2oc1=O | – | > 100 | > 100 | > 100 | > 100 | 99 | > 100 | – | –
25 | O=C(CCN1CCCCC1)c1csc2ccccc12 | – | – | – | – | – | – | – | > 100 | –
26 | CCN(N=O)C1C2(CCCC2)NC(=O)C12CCCC2 (centres undefined) | > 100 | > 100 | > 100 | > 100 | > 100 | > 100 | > 100 | – | TGI (RXF-631 renal): > 100 µM

Source: PubChem BioAssay (NCI)
